Data: patent US9045443B2, “Nitric oxide donor neprilysin inhibitors” (Theravance Biopharma R&D IP, LLC, priority 2012, dated 2015)

Target: T1, human NEP (Homo sapiens, UniProt P08473)
T1 construct: purchased R&D Systems, Minneapolis, Minn; 1182-ZN
Assay: In vitro enzyme inhibition assay at human NEP (Assay 1)
Format: biochemical
Details: recombinant human NEP, fluorogenic peptide substrate 10 μM, 37° C.; values may be affected by hydrolysis in the assay conditions, approximations; read-out: pKi at human NEP (converted)
Method: The inhibitory activities of compounds at human and rat neprilysin (EC 3.4.24.11; NEP) and human angiotensin converting enzyme (ACE) were determined using in vitro assays as described below.
Recombinant human NEP and recombinant human ACE were obtained commercially (R&D Systems, Minneapolis, Minn., catalog numbers 1182-ZN and 929-ZN, respectively). The fluorogenic peptide substrate Mca-D-Arg-Arg-Leu-Dap-(Dnp)-OH (Medeiros et al. (1997) Braz. J. Med. Biol. Res. 30:1157-62; Anaspec, San Jose, Calif.) and Abz-Phe-Arg-Lys(Dnp)-Pro-OH (Araujo et al. (2000) Biochemistry 39:8519-8525; Bachem, Torrance, Calif.) were used in the NEP and ACE assays respectively.
The assays were performed in 384-well white opaque plates at 37° C. using the fluorogenic peptide substrates at a concentration of 10 μM in Assay Buffer (NEP: 50 mM HEPES, pH 7.5, 100 mM NaCl, 0.01% polyethylene glycol sorbitan monolaurate (Tween-20), 10 μM ZnSO4; ACE: 50 mM HEPES, pH 7.5, 100 mM NaCl, 0.01% Tween-20, 1 μM ZnSO4).
Test compounds were assayed over the range of concentrations from […] to 20 μM. Test compounds were added to the enzymes and incubated for 30 minute at 37° C. prior to initiating the reaction by the addition of substrate. Reactions were terminated after 20 minutes of incubation at 37° C. by the addition of glacial acetic acid to a final concentration of 3.6% (v/v).
Plates were read on a fluorometer with excitation and emission wavelengths set to 320 nm and 405 nm, respectively Inhibition constants were obtained by nonlinear regression of the data using the equation (GraphPad Software, Inc., San Diego, Calif.): v=v0/[1+(I/K′)] where v is the reaction rate, v0 is the uninhibited reaction rate, I is the inhibitor concentration and K′ is the apparent inhibition constant.
Compounds of the invention were tested in this assay and found to have pKi values at human NEP as follows, noting however, that these values may be affected by hydrolysis in the assay conditions and are therefore approximations of activity.

T1 sequence (P08473 52-750 limits assumed): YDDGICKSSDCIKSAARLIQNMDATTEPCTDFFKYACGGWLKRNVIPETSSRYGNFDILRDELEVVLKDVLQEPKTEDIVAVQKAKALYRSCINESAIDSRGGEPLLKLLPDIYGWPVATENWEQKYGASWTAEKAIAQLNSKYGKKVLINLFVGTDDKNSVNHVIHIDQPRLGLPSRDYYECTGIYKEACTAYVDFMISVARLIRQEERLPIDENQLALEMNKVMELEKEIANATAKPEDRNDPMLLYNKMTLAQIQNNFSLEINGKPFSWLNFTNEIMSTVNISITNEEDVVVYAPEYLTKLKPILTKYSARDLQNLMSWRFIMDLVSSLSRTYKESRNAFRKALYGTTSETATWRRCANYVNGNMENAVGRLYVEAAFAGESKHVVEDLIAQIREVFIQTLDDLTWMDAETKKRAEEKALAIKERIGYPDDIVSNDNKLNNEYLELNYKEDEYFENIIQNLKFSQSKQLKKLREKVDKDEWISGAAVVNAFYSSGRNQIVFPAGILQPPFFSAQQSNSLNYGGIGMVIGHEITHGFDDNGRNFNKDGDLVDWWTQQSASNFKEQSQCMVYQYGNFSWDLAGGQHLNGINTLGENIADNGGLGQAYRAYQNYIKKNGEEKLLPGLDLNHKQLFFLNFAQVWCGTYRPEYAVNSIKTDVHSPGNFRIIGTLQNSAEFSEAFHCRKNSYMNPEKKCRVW

SMILES | Ki
O=C(N[C@H](Cc1ccc(-c2ccccc2)cc1)C[C@@H](O)C(=O)OCCCCO[N+](=O)[O-])c1cc(O)no1 [Example 1, (2R,4R)-5-Biphenyl-4-yl-2-hydroxy-4-[(3-hydroxyisoxazole-5-carbonyl)amino]pentanoic Acid 4-Nitrooxybutyl Ester] | 31.6 to 100 nM
O=C(O)C(=O)N[C@H](Cc1ccc(-c2ccccc2)cc1)C[C@@H](O)C(=O)OCCCCO[N+](=O)[O-] [Example 3, (2R,4R)-5-Biphenyl-4-yl-2-hydroxy-4-(oxalylamino)-pentanoic Acid 4-Nitrooxybutyl Ester] | 316 to 1000 nM
O=C(O)C(=O)N[C@H](Cc1ccc(-c2ccccc2)cc1)C[C@@H](O)C(=O)OCCCCOc1no[n+]([O-])c1S(=O)(=O)c1ccccc1 [Example 4, (2R,4R)-5-Biphenyl-4-yl-2-hydroxy-4-(oxalylamino)-pentanoic Acid 4-(4-Benzenesulfonyl-5-oxyfurazan-3-yloxy)butyl Ester] | 316 to 1000 nM
O=C(N[C@H](Cc1ccc(-c2ccccc2)cc1)C[C@@H](O)C(=O)OCCCCOc1no[n+]([O-])c1S(=O)(=O)c1ccccc1)c1cc(O)no1 [Example 2, (2R,4R)-5-Biphenyl-4-yl-2-hydroxy-4-[(3-hydroxyisoxazole-5-carbonyl)amino]pentanoic Acid 4-(4-Benzenesulfonyl-5-oxyfurazan-3-yloxy)butyl Ester] | 31.6 to 100 nM
